Values of other authors as cited in PubChem BioAssay AID1259409 (Chemical Carcinogenesis Research Information System (CCRIS), 2018).

Tested on: rodent chemically induced tumor inhibition, incidence and multiplicity
Assay: CCRIS tumor inhibitor studies
Conditions: Route [Inhibitor]: ORAL

**Q.** With `Cc1c(C)c2c(c(C)c1O)CC[C@@](C)(CCC[C@H](C)CCC[C@H](C)CCCC(C)C)O2` as the compound, how does the outcome (Carcinogen: N-BIS(2-HYDROXYPROPYL)NITROSAMINE, 53609-64-6, Dose [Inhibitor]: 0, 1% IN DIET FOR 30 WK BEGINNING POST CARCINOGEN TREATMENT (STUDY DURATION: 32 WK), Species: RAT, Strain/Sex: F344/MALE, Target Tissue: Type of Lesion: LUNG: ADENOMA, Dose [Carcinogen]: 0.1% IN DRINKING WATER FOR 2 WK, Promoter: NONE USED) read?
**A.** 100%, 100%, 0, not significant

**Q.** What about the “tumour outcome (control, treated, inhibition, significance)” value (Carcinogen: N-BIS(2-HYDROXYPROPYL)NITROSAMINE, 53609-64-6, Dose [Inhibitor]: 0, 1% IN DIET FOR 30 WK BEGINNING POST CARCINOGEN TREATMENT (STUDY DURATION: 32 WK), Species: RAT, Strain/Sex: F344/MALE, Target Tissue: Type of Lesion: THYROID: ADENOMA, Dose [Carcinogen]: 0.1% IN DRINKING WATER FOR 2 WK, Promoter: NONE USED) of the same compound?
**A.** 5%, 10%, -100%, not calculated

**Q.** And the “tumour outcome (control, treated, inhibition, significance)” value (Carcinogen: N-BIS(2-HYDROXYPROPYL)NITROSAMINE, 53609-64-6, Dose [Inhibitor]: 0, 1% IN DIET FOR 30 WK BEGINNING POST CARCINOGEN TREATMENT (STUDY DURATION: 32 WK), Species: RAT, Strain/Sex: F344/MALE, Target Tissue: Type of Lesion: THYROID: CARCINOMA, Dose [Carcinogen]: 0.1% IN DRINKING WATER FOR 2 WK, Promoter: NONE USED)?
**A.** 20%, 10%, 50%, not calculated

**Q.** What about the “tumour outcome (control, treated, inhibition, significance)” value (Carcinogen: N-BIS(2-HYDROXYPROPYL)NITROSAMINE, 53609-64-6, Dose [Inhibitor]: 0, 1% IN DIET FOR 30 WK BEGINNING POST CARCINOGEN TREATMENT (STUDY DURATION: 32 WK, Species: RAT, Strain/Sex: F344/MALE, Target Tissue: Type of Lesion: LUNG: CARCINOMA, Dose [Carcinogen]: 0.1% IN DRINKING WATER FOR 2 WK, Promoter: NONE USED) of the same compound?
**A.** 45%, 10%, 78%, p<0.05

**Q.** What about the “tumour outcome (control, treated, inhibition, significance)” value (Carcinogen: N-METHYL-N'-NITRO-N-NITROSOGUANIDINE, 70-25-7, N-ETHYL-N-HYDROXYETHYLNITROSAMINE, 13147-25-6, N-METHYLBENZYLNITROSAM, Carcinogen: N-METHYL-N'-NITRO-N-NITROSOGUANIDINE, 70-25-7, N-ETHYL-N-HYDROXYETHYLNITROSAMINE, 13147-25-6, N-METHYLBENZYLNITROSAM, Dose [Inhibitor]: 0, 1% IN DIET FOR 36 WK (STUDY DURATION: 36 WK), Species: RAT, Strain/Sex: F344/MALE, Target Tissue: Type of Lesion: KIDNEY: RENAL CELL TUMOR, Dose [Carcinogen]: 100 MG/KG BW MNNG ONCE, 750 MG/KG BW EHEN ONCE, 0.5 MG/KG BW MBN TWICE, 40 MG/KG BW DMH 4 TIMES, 0.05% DBN IN DRINKING W, Promoter: NONE USED) of the same compound?
**A.** 8/18 (44%), 5/18 (28%), 36%, not calculated

**Q.** And the “tumour outcome (control, treated, inhibition, significance)” value (Carcinogen: N-METHYL-N-NITROSOUREA, 684-93-5, Dose [Inhibitor]: 0, 3.349 UMOL/G IN DIET FOR DURATION OF STUDY (STUDY DURATION: 19 WK), Species: RAT, Strain/Sex: SPRAGUE-DAWLEY/FEMALE, Target Tissue: Type of Lesion: MAMMARY GLAND: TUMOR, Dose [Carcinogen]: 30 MG/KG IN ACIDIFIED SALINE ONCE, Promoter: NONE USED)?
**A.** 60%, 50%, 17%, not significant

**Q.** And the “tumour outcome (control, treated, inhibition, significance)” value (Carcinogen: N-METHYLBENZYLNITROSAMINE, 937-40-6, Dose [Inhibitor]: 30, 142 IU IN BASAL DIET BEGINNING 1 WK POST CARCINOGEN TREATMENT (STUDY DURATION: 26 WK), Species: MOUSE, Strain/Sex: C57BL/FEMALE, Target Tissue: Type of Lesion: ESOPHAGUS: TUMORS, Dose [Carcinogen]: 0.2 MG/KG BW IN CORN OIL 3/WK FOR 3 WK, Promoter: NONE USED)?
**A.** 6/15 (40%), 3/15 (20%), 50%, p<0.05

**Q.** What about the “tumour outcome (control, treated, inhibition, significance)” value (Carcinogen: N-METHYLBENZYLNITROSAMINE, 937-40-6, Dose [Inhibitor]: 30, 142 IU IN BASAL DIET BEGINNING 1 WK POST CARCINOGEN TREATMENT TO MICE INFECTED WITH LP-BM5 MURINE RETROVIRUS (STUDY, Species: MOUSE, Strain/Sex: C57BL/FEMALE, Target Tissue: Type of Lesion: ESOPHAGUS: TUMORS, Dose [Carcinogen]: 0.2 MG/KG BW IN CORN OIL 3/WK FOR 3 WK, Promoter: NONE USED) of the same compound?
**A.** 12/15 (80%), 11/16 (69%), 14%, not significant

**Q.** What about the “tumour outcome (control, treated, inhibition, significance)” value (Carcinogen: N-NITROSOMETHYLBENZYLAMINE, 937-40-6, Dose [Inhibitor]: 20, 142 MG/KG DIET BEGINNING POST CARCINOGEN TREATMENT AND CONTINUING FOR DURATION OF STUDY (STUDY DURATION: 23 WK), Species: MOUSE, Strain/Sex: C57BL/FEMALE, Target Tissue: Type of Lesion: ESOPHAGUS: TUMOR, Dose [Carcinogen]: 0.2 MG/KG BW IN CORN OIL 3/WK FOR 3 WK, Promoter: ETHANOL, 64-17-5) of the same compound?
**A.** 10/17 (59%), 6/16 (38%), 36%, p<0.05

**Q.** What about the “tumour outcome (control, treated, inhibition, significance)” value (Carcinogen: NONE USED, Dose [Inhibitor]: 25.5, 550.9 MG/KG IN DIET FOR 40 WK (STUDY DURATION: 40 WK), Species: MOUSE, Strain/Sex: STRAIN-A/MALE, Target Tissue: Type of Lesion: LUNG: TUMOR, Promoter: NONE USED) of the same compound?
**A.** 8/15 (53%), 4/15 (27%), 49%, not significant

**Q.** What about the “tumour outcome (control, treated, inhibition, significance)” value (Carcinogen: URETHANE, 51-79-6, Dose [Inhibitor]: 25, 500 MG/KG IN DIET FOR THE DURATION OF STUDY (STUDY DURATION: 26 WK), Species: MOUSE, Strain/Sex: DDY/MALE, Target Tissue: Type of Lesion: LUNG: TUMOR, Dose [Carcinogen]: 750 MG/KG BW ONCE, Promoter: NONE USED) of the same compound?
**A.** 100%, 80%, 20%, not calculated
